The record followed here is patent US7973219B2, “Method for producing transgenic plants resistant to weed control compounds which disrupt the porphyrin pathways of plants” (Sumitomo Chemical Company, Limited, priority 1998, dated 2011).

Assay [1] relates to tobacco into which bchH gene was introduced. The assay is described as follows: Leaf piece chlorophyll test, tobacco into which bchH gene was introduced. The class given is in vivo. To be noted: Nicotiana tabacum, read-out: Resistant level to test compound; for activity at 0.3 ppm: 0.30 ppm. The protocol: (§1) Then, according to the method described in Manual for Gene Manipulation of Plant (by Hirofumi UCHIMIYA, Kodan-sha Scientific, 1992), the gene was introduced into tobacco. Agrobacterium strain bearing plasmid pBIBCH was cultured at 28° C. overnight in LB medium and then leaf pieces of tobacco cultured sterilely were dipped in the liquid culture medium. The leaf pieces were cultured at room temperature for 2 days in Murashige-Skoog medium (MS-medium, described in Murasige T. and Skoog F., Physiol. Plant. (1962) 15, p 473) containing 0.8% agar, 0.1 mg/liter naphthalene acetic acid and 1.0 mg/liter benzyl aminopurine. Then, the leaf pieces were washed with sterilized water and cultured for 7 days on MS medium containing 0.8% agar, 0.1 mg/liter naphthalene acetic acid, 1.0 mg/liter benzyl aminopurine and 500 μg/ml cefotaxime. The leaf pieces were transplanted onto MS medium containing 0.8% agar, 0.1 mg/liter naphthalene acetic acid, 1.0 mg/liter benzyl aminopurine, 500 μg/ml cefotaxime and 100 μg/ml kanamycin (hereinafter referred to as selective MS medium) and cultured on the medium continuously for 4months with transplanting the tobacco leaf pieces onto fresh selective MS medium every 1 month. During culture, stem-leaf differentiated shoots were appeared from the tobacco leaf pieces, these shoots were transplanted to MS medium containing 0.8% agar, 300 μg/ml cefotaxime and 50 μg/ml kanamycin to induce roots to obtain regenerated plants. The resultant regenerated plant was transplanted and cultured on MS medium 0.8% agar and 50 μg/ml kanamycin to obtain tobacco plant into which bchH gene was introduced. Similarly, tobacco leaf pieces were infected with Agrobacterium strain bearing pNO to obtain regenerated plant from the tobacco leaf pieces and tobacco plant (hereinafter referred to as control recombinant tobacco).
(§2) The tobacco leaves into which bchH gene was introduced and control recombinant tobacco leaves obtained in Example 5 were collected and each leaf was divided into the right and left equivalent pieces along the main vein, respectively. To one piece was applied an aqueous solution containing 0.3 ppm PPO inhibitory-type herbicidal compound of Structure 8, while, to the other piece was not applied the compound. These leaf pieces were placed on MS medium containing 0.8% agar and allowed to stand at room temperature for 7 days in light place. Then, each leaf piece was ground with pestle and mortar in 5 ml of 80% aqueous acetone solution to extract chlorophyll. The extract liquid was diluted with 80% aqueous acetone solution and the absorbance was measured at 750 nm, 663 nm and 645 nm to calculate total chlorophyll content according to the method described by Macknney G., J. Biol. Chem. (1941) 140, p 315. The results obtained from 4 clones of tobacco into which bchH gene was introduced (BCH1 to 4) and control recombinant tobacco is shown in Table 4. In the table, the resistant level to the herbicidal compound was represented by percentages of the total chlorophyll content of leaf pieces treated with herbicidal compound to that of untreated leaf pieces.
(§3) The tobacco clone into which bchH gene was introduced and control recombinant tobacco were also treated in the same manner with the solution containing PPO inhibitory-type herbicidal compound represented by the above Structure 3, 7, 10, 11, 13, 17, 23, 24, 25, 27, 28, 30 or 35, and the resistant level to each herbicidal compound was measured. In the table, the resistant levels to the herbicidal compound were represented by percentages of the total chlorophyll content of leaf pieces treated with the herbicidal compound to that of untreated leaf pieces.

Assay [2] deals with control recombinant tobacco. The assay is described as follows: Leaf piece chlorophyll test, control recombinant tobacco. The class given is in vivo. To be noted: Nicotiana tabacum, read-out: Resistant level to test compound; for activity at 0.3 ppm: 0.30 ppm. The protocol: as §1, §2, §3
The level of resistance to PPO inhibitory type herbicidal compound represented by Structure 8 was confirmed quantitatively by testing tobacco into which the gene encoding the variant soybean PPO prepared in Example 13 was introduced according to the same manner as in Example 6. […]

Where [3] appears, read: bchH recombinant tobacco, treated vs untreated leaf pieces, Table 5.
The mark [4] stands for this setting: control recombinant tobacco, treated vs untreated leaf pieces, Table 5.

Like-named read-outs stand apart in the source and are kept apart here.

Take `CCOC(=O)C(C)OC(=O)c1cc(Oc2ccc(C(F)(F)F)cc2Cl)ccc1[N+](=O)[O-]` (stereo not drawn) [Structure 3]: the values for the activity at 10 ppm in assay [1] (setting [3]) and in assay [2] (setting [4]) were 114% and 9.94%, respectively.

Take `O=[N+]([O-])c1ccc(Oc2c(Cl)cc(Cl)cc2Cl)cc1` [Structure 7]: the activity at 30 ppm in assay [1] (bchH recombinant tobacco, 30 ppm, treated vs untreated leaf pieces, Table 5) came to 89.3%; in assay [2] (control recombinant tobacco, 30 ppm, treated vs untreated leaf pieces, Table 5), 8.62%.

With `CCCCCOC(=O)COc1cc(N2C(=O)C3=C(CCCC3)C2=O)c(F)cc1Cl` [Structure 10], the activity at 10 ppm in assay [1] (setting [3]) amounted to 84%; in assay [2] (setting [4]) it was 14.9%.

For the compound `C#CCN1C(=O)COc2cc(F)c(N3C(=O)C4=C(CCCC4)C3=O)cc21` [Structure 11], the activity at 0.3 ppm came to 78.1% in assay [1] (setting [3]) and 5.51% in assay [2] (setting [4]).

Turning to `C#CCN1C(=O)COc2cc(F)c(-n3c(=O)cc(C(F)(F)F)n(C)c3=O)cc21` [Structure 17], the figures for the activity at 0.3 ppm in assay [1] (setting [3]) and in assay [2] (setting [4]) were 80.4% and 14.3%, respectively.

For the compound `C#CCOc1cc(-n2nc3n(c2=O)CCCC3)c(Cl)cc1Cl` [Structure 23], the activity at 3 ppm was 106% in assay [1] (bchH recombinant tobacco, 3.0 ppm, treated vs untreated leaf pieces, Table 5) and 5.58% in assay [2] (control recombinant tobacco, 3.0 ppm, treated vs untreated leaf pieces, Table 5).

Regarding `C#CCOc1cc(-n2nc(C(C)(C)C)oc2=O)c(Cl)cc1Cl` [Structure 24], the activity at 10 ppm in assay [1] (setting [3]) was 129%; in assay [2] (setting [4]) it was 5.18%.

With `CC(C)Oc1cc(-n2nc(C(C)(C)C)oc2=O)c(Cl)cc1Cl` [Structure 25], the activity at 10 ppm in assay [1] (setting [3]) was 104%; in assay [2] (setting [4]) it was 16%.

For `CCOC(=O)COc1cc(-n2ncc(C(F)(F)F)c(C)c2=O)c(F)cc1Cl` [Structure 27], the activity at 10 ppm in assay [1] (setting [3]) is 86.8%; in assay [2] (setting [4]), 16.8%.

Take `C#CCOc1cc(-n2ncc(C(F)(F)F)c(C)c2=O)c(F)cc1Cl` [Structure 28]: the activity at 0.3 ppm in assay [1] (setting [3]) was 72.2%; in assay [2] (setting [4]) it was 8.79%.

In the case of `CCOC(=O)COc1cc(-c2nn(C)c(OC(F)F)c2Cl)c(F)cc1Cl` [Structure 30], the activity at 3 ppm was 102% in assay [1] and 4.24% in assay [2].

On to `C#CCN1C(=O)COc2cc(F)c(-c3cnc(C(F)(F)F)n(C)c3=O)cc21` [Structure 35], for which the activity at 0.3 ppm came to 83.3% in assay [1] (setting [3]) and 17.4% in assay [2] (setting [4]).
